Reference: patent publication US4061645A, “2-Trichloromethyl-5-methylsulfinyl-1,3,4-thiadiazole” (Schering Aktiengesellschaft, priority 1972, dated 1977)

These molecules were tested on Rhizoctonia solani (assay: Limit concentration of soil-fungicidal effectiveness, Rhizoctonia solani, infested soil seeded with peas (Example 1)). Details: soil, 480 h, 20 to 23 days, 22°-25° C, read-out: Limit concentration of the fungicidal effectiveness.
Type: in vivo
Protocol: Limit concentrations of the soil-fungicidal effectiveness at homogeneous mixture of the products with the infested soil. Basic condition in the evaluation are a sound root formation without fungus necroses and germination of the seed of at least 90% compared with the result obtained in steamed soil. Per concentration there were seeded 25 grains of peas of the variety "Miracle of Kelvedon" (marrow pea) without a waiting period. The cultivation time in the tests was 20 to 23 days at a temperature of 22°-25° C. Four commercial products were included in the test series.
Rhizoctania solani: -- Steamed compost soil was inoculated with mycelium of Rhizoctonia solani.
Molecule `CCCC[S+]([O-])c1nnc(C(Cl)(Cl)Cl)s1` (centres unmarked) [Compound 12, 2-trichloromethyl-5-butylsulfinyl-1,3,4-thiadiazole] has a minimal effective concentration of 50 µg/mL. `CCS(=O)(=O)c1nnc(C(Cl)(Cl)Cl)s1` [Compound 22, 2-trichloromethyl-5-ethylsulfonyl-1,3,4-thiadiazole] was tested, and the minimal effective concentration was 50 µg/mL. In the case of `CCCCS(=O)(=O)c1nnc(C(Cl)(Cl)Cl)s1` [Compound 25, 2-trichloromethyl-5-butylsulfonyl-1,3,4-thiadiazole], the minimal effective concentration was 25 µg/mL. `CCCCCCS(=O)(=O)c1nnc(C(Cl)(Cl)Cl)s1` [Compound 27, 2-trichloromethyl-5-hexylsulfonyl-1,3,4-thiadiazole] gave a minimal effective concentration of 25 µg/mL.

These molecules were tested on Pythium ultimum (assay: Pythium ultimum infested compost soil, marrow peas (Example 2)). Details: 200 mg active ingr. per liter of soil; 3 weeks.
Type: in vivo
Description: Steamed compost soil was inoculated with mycelium of Pythium ultimum.
In the case of `S=C([S-])NCCNC(=S)[S-].[Zn+2]` [Zinc ethylene-bis-dithiocarbamate, zinc-ethylene-bis-dithiocarbamate, reference compound], the “Weight of fresh plant” value was 7 g.

Same assay, conditions: 200 mg active ingr. per liter of soil; of 25 grains
With `S=C([S-])NCCNC(=S)[S-].[Zn+2]` [Zinc ethylene-bis-dithiocarbamate, zinc-ethylene-bis-dithiocarbamate, reference compound] the “Number of sound peas after 3 wks.” value was 14.

What follows are molecules tested on Fusarium oxysporum f. callistephi (assay: Fusarium infested compost soil, Callistephus chinesis seedlings (Example 5)). Details: 50 mg active ingredient per liter of soil; of 4 seedlings.
Type: in vivo
Description: Steamed compost soil was inoculated with a spore suspension of Fusarium oxysporum f. callistephi. After homogeneous mixture of the products with the infested soil, the products were present as 20% powder preparations, and after a waiting period of 8 days, there were set out per concentration 4 seedlings of Callistephus chinesis, master aster "Sun Ray" as host plants.
With `CCS(=O)(=O)c1nnc(C(Cl)(Cl)Cl)s1` [Compound 22, 2-trichloromethyl-5-ethylsulfonyl-1,3,4-thiadiazole] the “Number of attacked plants after 3 weeks” value was 0. In the case of `CCCCS(=O)(=O)c1nnc(C(Cl)(Cl)Cl)s1` [Compound 25, 2-trichloromethyl-5-butylsulfonyl-1,3,4-thiadiazole], the “Number of attacked plants after 3 weeks” value was 0.

Same assay, conditions: 100 mg active ingredient per liter of soil; of 4 seedlings
In the case of `CCS(=O)(=O)c1nnc(C(Cl)(Cl)Cl)s1` [Compound 22, 2-trichloromethyl-5-ethylsulfonyl-1,3,4-thiadiazole], the “Number of attacked plants after 3 weeks” value was 0. For `CCCCS(=O)(=O)c1nnc(C(Cl)(Cl)Cl)s1` [Compound 25, 2-trichloromethyl-5-butylsulfonyl-1,3,4-thiadiazole], the “Number of attacked plants after 3 weeks” value was 0.

Each molecule was assayed on Asperqilus niger (assay: Agar test (Example 7), Aspergillus). Details: 10 ppm; 5 days at 22° C; control 100.
Type: cell-based
Protocol: (§1) The fungicidal action of the agents according to the invention was tested in artificial nutrient media against plant-pathogenic fungi in Petri dishes (agar test). The procedure was to sterilize the medium consisting of 2% malt extract and 1.5% agar-agar powder. Before the solidification of the medium, the active substances were added to it, mixing thoroughly, so that the medium received 10 parts of active substance per million (ppm). After the solidification of the medium, the latter was inoculated with a platinum dropper which contained 100 spores each of the fungi to be tested, and after five days at 22° C, an evaluation was made by measuring the diameter of the colonies in mm.
For `S=C([S-])NCCNC(=S)[S-].[Zn+2]` [Zinc ethylene-bis-dithiocarbamate, zinc-ethylene-bis-dithiocarbamate, reference compound], the “diameter of the colonies” value was 78 mm. For `CCCC[S+]([O-])c1nnc(C(Cl)(Cl)Cl)s1` (centres unmarked) [Compound 12, 2-trichloromethyl-5-butylsulfinyl-1,3,4-thiadiazole], the “diameter of the colonies” value was 0 mm. For `CCS(=O)(=O)c1nnc(C(Cl)(Cl)Cl)s1` [Compound 22, 2-trichloromethyl-5-ethylsulfonyl-1,3,4-thiadiazole], the “diameter of the colonies” value was 0 mm. In the case of `CCCCS(=O)(=O)c1nnc(C(Cl)(Cl)Cl)s1` [Compound 25, 2-trichloromethyl-5-butylsulfonyl-1,3,4-thiadiazole], the “diameter of the colonies” value was 0 mm. `CCCCCCS(=O)(=O)c1nnc(C(Cl)(Cl)Cl)s1` [Compound 27, 2-trichloromethyl-5-hexylsulfonyl-1,3,4-thiadiazole] was tested, and the “diameter of the colonies” value was 0 mm.

Each molecule was assayed on Botrytis cinerea (assay: Agar test (Example 7), Botrytis). Details: 10 ppm; 5 days at 22° C; control 100.
Type: cell-based
Protocol: as §1
For `S=C([S-])NCCNC(=S)[S-].[Zn+2]` [Zinc ethylene-bis-dithiocarbamate, zinc-ethylene-bis-dithiocarbamate, reference compound], the “diameter of the colonies” value was 36 mm. `CCCC[S+]([O-])c1nnc(C(Cl)(Cl)Cl)s1` (centres unmarked) [Compound 12, 2-trichloromethyl-5-butylsulfinyl-1,3,4-thiadiazole] was tested, and the “diameter of the colonies” value was 0 mm. For `CCS(=O)(=O)c1nnc(C(Cl)(Cl)Cl)s1` [Compound 22, 2-trichloromethyl-5-ethylsulfonyl-1,3,4-thiadiazole], the “diameter of the colonies” value was 0 mm. `CCCCS(=O)(=O)c1nnc(C(Cl)(Cl)Cl)s1` [Compound 25, 2-trichloromethyl-5-butylsulfonyl-1,3,4-thiadiazole] was tested, and the “diameter of the colonies” value was 0 mm. With `CCCCCCS(=O)(=O)c1nnc(C(Cl)(Cl)Cl)s1` [Compound 27, 2-trichloromethyl-5-hexylsulfonyl-1,3,4-thiadiazole] the “diameter of the colonies” value was 0 mm.

What follows are molecules tested on Colletotrichum gloeosporioides (assay: Agar test (Example 7), Colletotrichum). Details: 10 ppm; 5 days at 22° C; control 100.
Type: cell-based
Protocol: as §1
In the case of `S=C([S-])NCCNC(=S)[S-].[Zn+2]` [Zinc ethylene-bis-dithiocarbamate, zinc-ethylene-bis-dithiocarbamate, reference compound], the “diameter of the colonies” value was 81 mm. With `CCCC[S+]([O-])c1nnc(C(Cl)(Cl)Cl)s1` (centres unmarked) [Compound 12, 2-trichloromethyl-5-butylsulfinyl-1,3,4-thiadiazole] the “diameter of the colonies” value was 0 mm. `CCS(=O)(=O)c1nnc(C(Cl)(Cl)Cl)s1` [Compound 22, 2-trichloromethyl-5-ethylsulfonyl-1,3,4-thiadiazole] was tested, and the “diameter of the colonies” value was 0 mm. In the case of `CCCCS(=O)(=O)c1nnc(C(Cl)(Cl)Cl)s1` [Compound 25, 2-trichloromethyl-5-butylsulfonyl-1,3,4-thiadiazole], the “diameter of the colonies” value was 0 mm. With `CCCCCCS(=O)(=O)c1nnc(C(Cl)(Cl)Cl)s1` [Compound 27, 2-trichloromethyl-5-hexylsulfonyl-1,3,4-thiadiazole] the “diameter of the colonies” value was 0 mm.

The molecules below were run on Helminthosporium sativum (assay: Agar test (Example 7), Helminthosporium). Details: 10 ppm; 5 days at 22° C; control 100.
Type: cell-based
Protocol: as §1
With `S=C([S-])NCCNC(=S)[S-].[Zn+2]` [Zinc ethylene-bis-dithiocarbamate, zinc-ethylene-bis-dithiocarbamate, reference compound] the “diameter of the colonies” value was 50 mm. `CCCC[S+]([O-])c1nnc(C(Cl)(Cl)Cl)s1` (centres unmarked) [Compound 12, 2-trichloromethyl-5-butylsulfinyl-1,3,4-thiadiazole] was tested, and the “diameter of the colonies” value was 0 mm. In the case of `CCS(=O)(=O)c1nnc(C(Cl)(Cl)Cl)s1` [Compound 22, 2-trichloromethyl-5-ethylsulfonyl-1,3,4-thiadiazole], the “diameter of the colonies” value was 0 mm. `CCCCS(=O)(=O)c1nnc(C(Cl)(Cl)Cl)s1` [Compound 25, 2-trichloromethyl-5-butylsulfonyl-1,3,4-thiadiazole] was tested, and the “diameter of the colonies” value was 0 mm. In the case of `CCCCCCS(=O)(=O)c1nnc(C(Cl)(Cl)Cl)s1` [Compound 27, 2-trichloromethyl-5-hexylsulfonyl-1,3,4-thiadiazole], the “diameter of the colonies” value was 0 mm.

These molecules were tested on Stemphylium ilicis (assay: Agar test (Example 7), Stemphylium). Details: 10 ppm; 5 days at 22° C; control 100.
Type: cell-based
Protocol: as §1
For `S=C([S-])NCCNC(=S)[S-].[Zn+2]` [Zinc ethylene-bis-dithiocarbamate, zinc-ethylene-bis-dithiocarbamate, reference compound], the “diameter of the colonies” value was 55 mm. With `CCCC[S+]([O-])c1nnc(C(Cl)(Cl)Cl)s1` (centres unmarked) [Compound 12, 2-trichloromethyl-5-butylsulfinyl-1,3,4-thiadiazole] the “diameter of the colonies” value was 0 mm. With `CCS(=O)(=O)c1nnc(C(Cl)(Cl)Cl)s1` [Compound 22, 2-trichloromethyl-5-ethylsulfonyl-1,3,4-thiadiazole] the “diameter of the colonies” value was 0 mm. `CCCCS(=O)(=O)c1nnc(C(Cl)(Cl)Cl)s1` [Compound 25, 2-trichloromethyl-5-butylsulfonyl-1,3,4-thiadiazole] was tested, and the “diameter of the colonies” value was 0 mm. In the case of `CCCCCCS(=O)(=O)c1nnc(C(Cl)(Cl)Cl)s1` [Compound 27, 2-trichloromethyl-5-hexylsulfonyl-1,3,4-thiadiazole], the “diameter of the colonies” value was 0 mm.
